Test results published in patent publication US20230242956A1, “POLYPHOSPHATE KINASE MUTANT, ENGINEERED STRAIN AND APPLICATION THEREOF” (ZHEJIANG UNIVERSITY OF TECHNOLOGY, priority 2022, published 2023).

Target: T1, Cytophaga hutchinsonii polyphosphate kinase (ChPPK) mutant A79G/S106C/I108F/L285P (parent SEQ ID NO: 2) (Cytophaga hutchinsonii, UniProt A0A6N4SMB5, A79G/I108F/L285P/S106C)
T1 sequence (A0A6N4SMB5 with tags, fused parts or gaps A79G/S106C/I108F/L285P): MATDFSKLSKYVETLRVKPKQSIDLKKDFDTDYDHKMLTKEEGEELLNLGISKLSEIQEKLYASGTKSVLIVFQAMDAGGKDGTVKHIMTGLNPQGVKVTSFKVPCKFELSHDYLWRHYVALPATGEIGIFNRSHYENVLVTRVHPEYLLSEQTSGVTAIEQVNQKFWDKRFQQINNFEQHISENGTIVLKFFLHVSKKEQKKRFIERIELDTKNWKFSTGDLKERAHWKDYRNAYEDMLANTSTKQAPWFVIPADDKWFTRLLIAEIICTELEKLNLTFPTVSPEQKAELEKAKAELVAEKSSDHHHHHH
Assay: Kinetic parameters of mutant ChPPK/A79G/S106C/I108F/L285P (pure enzyme, pseudo-one-substrate kinetic model, ATP by HPLC)
Assay type: biochemical
Conditions: mutant versus wild-type; substrate AMP or PPA
Method: (2) Pure enzyme: 5 mL of the crude enzyme solution was diluted with 40 mL of potassium phosphate buffer (20 mM, pH 7.2), and then applied to a HisTrap HP purification column of GE Healthcare (10 mL column, pre-washed with a pH 7.2, 20 mM potassium phosphate buffer containing 500 mM NaCl). The resulting purification column was eluted with 100 mL of washing buffer (a pH7.2, 20 mM potassium phosphate buffer containing 500 mM sodium chloride and 50 mM imidazole) at a rate of 0.5 mL/min to remove the absorbed protein impurities, and then eluted with an elution buffer (a pH7.2, 20 mM potassium phosphate buffer containing 500 mM sodium chloride and 50 mM imidazole) at a speed of 0.5 mL/min to collect an elution solution containing the target protein. Then the elution solution containing the target protein was dialyzed in a dialysis bag (the MWCO of the dialysis bag was 14 KDa) with a pH7.2 of 20 mM potassium phosphate buffer for 48h, and the retentate was taken as pure enzyme. The concentration of the pure enzyme was determined by Beyotime BCA Protein Assay Kit(P0012), and the amount of the pure enzyme used in the following examples was calculated by protein content.
0.4 mg of the crude enzyme solution prepared by the method in Example 2 or 0.05 mg of the pure enzyme, polyphosphoric acid (PPA) at a final concentration of 1.6 g/L, adenosine phosphate (AMP) at a final concentration of 2.25 mM, and MgCl2 at a final concentration of 10 mM were added to 10 mL of 50 mM potassium phosphate buffer (pH 7.5). The reaction solution was incubated at 37° C. for 5 min, and then 10 mL of 0.2 M phosphoric acid solution was added to terminate the reaction. The ATP content in the solution was determined by HPLC method. […]
The wild-type Ecoli.BL21(DE3)-ChPPK constructed by the method of Example 1 and the engineered strain Ecoli.BL21(DE3)-ChPPK/A79G/S106C/I108F/L285P constructed by the method of Example 6 were used to prepare pure enzymes by the method of Example 2. Km and Kcat were calculated by pseudo-one-substrate kinetic model. […]

SMILES: Nc1ncnc2c1ncn2[C@@H]1O[C@H](COP(=O)(O)O)[C@@H](O)[C@H]1O [AMP, adenosine phosphate]
- Km, wild-type compared with mutant (in words): similar
- catalytic efficiency (kcat/Km) of the mutant, fold higher than wild-type ChPPK: 16 fold
- turnover number (kcat value), mutant compared with wild-type (in words): increased
